# Measurements as given in US20210161997A1, “TREATING DISEASES VIA TARGETED MODULATION OF GENE SIGNALING NETWORKS” (Camp4 Therapeutics Corporation, priority 2018, published 2021).
# Where a name gives a salt, the structure may show the parent alone. Read-outs that look alike come from different tables or passages of the source.
# Tests used:
# Assay type in all cases: cell-based
# CPOX = assay: RNA-seq of CPOX expression in compound-treated primary human hepatocytes
# Experimental: (§1) Human hepatocytes were obtained from two donors from Massachusetts General Hospital, namely MGH54 and MGH63, and one donor from Lonza, namely HUM4111B. Cryopreserved hepatocytes were cultured in plating media for 16 hours, transferred to maintenance media for 4 hours. Cultured on serum-free media for 2 hours, then a compound was added. The hepatocytes were maintained on the serum-free media for 16 hours prior to gene expression analysis. Primary human hepatocytes were stored in the vapor phase of a liquid nitrogen freezer (about −130° C.).
# (§2) Human hepatocytes cultured as described above were plated in 24-well format, adding 375,000 cells per well in a volume of 500 ul plating medium. Four hours before treatment, cells were washed with PBS and the medium was changed to either: fresh maintenance medium (complete) or modified maintenance medium.
# (§3) Compound stocks were prepared at 1000× final concentration and added in a 2-step dilution to the medium to reduce risk of a compound precipitating out of solution when added to the cells, and to ensure reasonable pipetting volumes. One at a time, each compound was first diluted 10-fold in warm (about 37° C.) modified maintenance medium (initial dilution=ID), mixed by vortexing, and the ID was diluted 100-fold into the cell culture (e.g. 5.1 ul into 1 well of a 24-well plate containing 0.5 mL medium). The plate was mixed by carefully swirling and after all wells were treated and returned to the incubator overnight. If desired, separate plates/wells were treated with vehicle-only controls and/or positive controls. If using multi-well plates, controls were included on each plate. After about 18 hours, cells were harvested for further analysis, e.g., ChIP-seq, RNA-seq, ATAC-seq, etc.
# (§4) This protocol is a modified version of the following protocols: MagMAX mirVana Total RNA Isolation Kit User Guide (Applied Biosystems #MAN0011131 Rev B.0), NEBNext Poly(A) mRNA Magnetic Isolation Module (E7490), and NEBNext Ultra Directional RNA Library Prep Kit for Illumina (E7420) (New England Biosystems #E74901).
# (§5) The MagMAX mirVana kit instructions (the section titled “Isolate RNA from cells” on pages 14-17) were used for isolation of total RNA from cells in culture. Two hundred μl of Lysis Binding Mix was used per well of the multiwell plate containing adherent cells (usually a 24-well plate).
# (§6) For mRNA isolation and library prep, the NEBNext Poly(A) mRNA Magnetic Isolation Module and Directional Prep kit was used. RNA isolated from cells above was quantified, and prepared in […] of each sample in 50 μl of nuclease-free water. This protocol may be run in microfuge tubes or in a 96-well plate.
# (§7) Standard QC were applied (read integrity, mapping statistics, library complexity, fragment bias) to remove unsatisfactory samples. […] Log 2 fold change and significance values were computed using PME count data (with replicates explicitly modeled versus pan-experiment controls), median ratio normalized, using maximum likelihood estimation rather than maximum a posteriori, and disabling the use of Cook's distance cutoff when determining acceptable adjusted p-values. […] RNA-seq signals were also normalized by read depth and visualized using the UCSC browser.
# (§8) To identify small molecules that modulate target gene expression, primary human hepatocytes were prepared as a monoculture, and at least one small molecule compound was applied to the cells.
# (§9) RNA-seq was performed to determine the effects of the compounds on the expression of the target genes in hepatocytes. Fold change was calculated by dividing the level of expression in the cell system that had been perturbed by the level of expression in an unperturbed system. Changes in expression having a p-value ≤0.05 were considered significant.
# Significance was defined as an FPKM ≥0.5 a log 2(fold change) ≥0.3, and a q-value of ≤0.05.
# APOL1 = assay: RNA-seq of APOL1 expression in compound-treated primary human hepatocytes; details: for mrna remaining at 10 µM: Homo sapiens, Hepatocyte, 16 h, read-out: APOL mRNA linear fold change
# Experimental: as §1, §2, §3, §4, §5, §6
# (§10) All pass filter reads from each sample were mapped against the human genome (assembly GRCh38/GCA_000001405.15 “no alt” analysis set merged with hs38d1/GCA_000786075.2) using two pass mapping via STAR version 2.5.3a (alignment parameters alignIntronMin=20; alignIntronMax=1000000; outFilterMismatchNmax=999; outFilterMismatchNoverLmax=0.05; outFilterType=BySJout; outFilterMultimapNmax=20; alignSJoverhangMin=8; alignSJDBoverhangMin=1; alignMatesGapMax=1000000) (Dobin et al., Bioinformatics (2012) 29(1):15-21). Genomic alignments were converted to transcriptome alignments based on reference transcript annotations from the Human GENCODE Gene Set release 24 (Harrow et al., Genome Res. (2012) 22(9): 1760-1774). Using unique and multimapped transcriptomic alignments, gene-level abundance estimates were computed using RSEM version 1.3.0 (Li and Dewey, BMC Bioinformatics (2011) 12:323) in a strand-aware manner, and including confidence interval sampling calculations, to arrive at posterior mean estimates (PME) of abundances (counts and normalized FPKM—fragments per kilobase of exon per million mapped fragments) from the underlying Bayesian model. Standard QC were applied (read integrity, mapping statistics, library complexity, fragment bias) to remove unsatisfactory samples.
# FN1 = assay: RNA-seq of FN1 expression in compound-treated primary human hepatocytes; details: perturbed vs unperturbed, significance FPKM ≥1, log 2(fold change) ≥0.5, q-value ≤0.05
# Experimental: as §1, §2, §3, §4, §5, §6, §10
# LECT2 = assay: RNA-seq of LECT2 expression in compound-treated primary human hepatocytes
# Experimental: as §1, §2, §3, §4, §5, §6, §7, §8, §9
# Significance was defined as an FPKM ≥1, a log 2(fold change) ≥0.5, and a q-value of ≤0.05 for all targets except for CPOX.
# ANGPTL3 = assay: RNA-seq of ANGPTL3 expression in compound-treated primary human hepatocytes; details: additional compounds (Table 13), linear fold change
# Summary of the method: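 Cryopreserved primary human hepatocytes from three donors, plated at 375,000 cells/well, switched to complete or modified maintenance medium, then dosed with compound (stocks at 1000× final) for about 18 h. Poly(A) mRNA was sequenced directionally, mapped to GRCh38 with STAR, and gene-level abundance (counts, FPKM) estimated with RSEM against GENCODE 24.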
# SLC37A4 = assay: RNA-seq of SLC37A4 expression in compound-treated primary human hepatocytes
# Experimental: as §1, §2, §3, §4, §5, §6, §10
# UGT1A1 = assay: RNA-seq of UGT1A1 expression in compound-treated primary human hepatocytes
# Summary of the method: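 Cryopreserved primary human hepatocytes from three donors were plated in 24-well format, then treated with compound diluted from 1000× stocks in serum-free maintenance medium for about 16–18 h. Poly(A) RNA-seq log2 fold change was computed against vehicle/pan-experiment controls. Significance required FPKM ≥1, log2FC ≥0.5 and q ≤0.05.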
# [1] = RNA-seq, primary human hepatocytes, significance FPKM ≥0.5, log 2(fold change) ≥0.3, q-value ≤0.05
compound,measurement,setting,value
COc1cc(Nc2c(C#N)cnc3cc(OCCCN4CCN(C)CC4)c(OC)cc23)c(Cl)cc1Cl [Bosutinib],CPOX Fold change (Log2),CPOX,0.34 Log2
"CC1OC2(CS1)CN1CCC2CC1 (stereo not drawn) [CPD341_Cevimeline, Cevimeline]",mrna remaining at 10 µM,"APOL1; RNAseq, 10 uM dose (Table 20)",65.5%
"CC[C@@H](CO)NC(=O)[C@@H]1C=C2c3cccc4[nH]cc(c34)C[C@H]2N(C)C1 [CPD388_Methylergonovine, Methylergonovine]",mrna remaining at 10 µM,APOL1,64.2%
"Clc1ccc(C(c2ccccc2Cl)C(Cl)Cl)cc1 (stereo not drawn) [CPD446_Mitotane, Mitotane]",mrna remaining at 10 µM,"APOL1; RNAseq, 10 uM dose (Table 20)",65.5%
"C[C@]12C=CC(=O)C=C1CC[C@@H]1[C@@H]2[C@@H](O)C[C@@]2(C)[C@H]1CC[C@]2(O)C(=O)CO [CPD447_Prednisolone, Prednisolone]",mrna remaining at 10 µM,"APOL1; RNAseq, 10 uM dose (Table 20)",65.5%
"CC(C)C[C@H](NC(=O)[C@H](Cc1ccccc1)NC(=O)c1cnccn1)B(O)O [CPD569_Bortezomib (PS-341), Bortezomib]",mrna remaining at 10 µM,"APOL1; RNAseq, 10 uM dose (Table 20)",63.7%
C=C1/C(=C\C=C2/CCC[C@]3(C)[C@@H]([C@H](C)CCCC(C)(C)O)CC[C@@H]23)C[C@@H](O)C[C@@H]1O [Calcitriol],FN1 Fold Change (Log2),FN1,−0.79 Log2
same,LECT2 Fold Change (Log2),LECT2,−1.82 Log2
same,ANGPTL3-LINEAR FOLD CHANGE,ANGPTL3,0.483
[Cl][Co][Cl] [Cobalt chloride],CPOX Fold change (Log2),CPOX,0.49 Log2
same,SLC37A4 Fold Change (Log2),SLC37A4,1.09 Log2
C[C@]12C[C@H](O)[C@H]3[C@@H](CCC4=CC(=O)CC[C@@]43C)[C@@H]1CC[C@@H]2C(=O)CO [Corticosterone],UGT1A1 Fold Change (Log2),UGT1A1,0.86 Log2
same,CPOX Fold change (Log2),CPOX; [1],0.36 Log2
same,SLC37A4 Fold Change (Log2),SLC37A4,0.73 Log2
CC(=O)N(O)CCCCCNC(=O)CCC(=O)N(O)CCCCCNC(=O)CCC(=O)N(O)CCCCCN [Deferoxamine mesylate],CPOX Fold change (Log2),CPOX,0.37 Log2
C[C@@H]1C[C@H]2[C@@H]3CCC4=CC(=O)C=C[C@]4(C)[C@@]3(F)[C@@H](O)C[C@]2(C)[C@@]1(O)C(=O)CO [Dexamethasone],SLC37A4 Fold Change (Log2),SLC37A4,0.66 Log2
O=Cc1c2[nH]c3ccccc3c2cc2[nH]c3ccccc3c12 [FICZ],UGT1A1 Fold Change (Log2),UGT1A1,2.62 Log2
same,CPOX Fold change (Log2),CPOX,0.44 Log2
same,ANGPTL3-LINEAR FOLD CHANGE,ANGPTL3,0.3231
O=C1NC(=O)/C(=C/c2ccc3nccc(-c4ccncc4)c3c2)S1 [GSK1059615],ANGPTL3-LINEAR FOLD CHANGE,ANGPTL3,0.1856
same,APOL mRNA linear fold change,"APOL1; RNAseq, 10 uM dose (Table 20)",0.5105
C[N+]1(C)CCC(OC(=O)C(O)(c2ccccc2)C2CCCC2)C1 (stereo not drawn) [Glycopyrrolate],CPOX Fold change (Log2),CPOX; [1],0.31 Log2
O=C(O)CC[C@H]1CC[C@@](c2cc(F)ccc2F)(S(=O)(=O)c2ccc(Cl)cc2)CC1 [MK-0752],CPOX Fold change (Log2),CPOX,0.34 Log2
CCc1nn(CCCN2CCN(c3cccc(Cl)c3)CC2)c(=O)n1CCOc1ccccc1 [Nefazodone],CPOX Fold change (Log2),CPOX,0.35 Log2
NCC(=O)Nc1ccc(-n2nc(C(F)(F)F)cc2-c2ccc3c(ccc4ccccc43)c2)cc1 [OSU-03012],FN1 Fold Change (Log2),FN1,−1.03 Log2
same,LECT2 Fold Change (Log2),LECT2,−0.77 Log2
same,ANGPTL3-LINEAR FOLD CHANGE,ANGPTL3,0.4965
"COc1cc(Nc2ncc(F)c(Nc3ccc4c(n3)N(COP(=O)(O)O)C(=O)C(C)(C)O4)n2)cc(OC)c1OC [R788 (fostamatinib disodium hexahydrate), fostamatinib disodium hexahydrate]",UGT1A1 Fold Change (Log2),UGT1A1,0.85 Log2
same,SLC37A4 Fold Change (Log2),SLC37A4,0.74 Log2
Cc1c(C(=O)NN2CCCCC2)nn(-c2ccc(Cl)cc2Cl)c1-c1ccc(Cl)cc1 [Rimonabant],FN1 Fold Change (Log2),FN1,−0.76 Log2
same,LECT2 Fold Change (Log2),LECT2,−0.81 Log2
same,ANGPTL3-LINEAR FOLD CHANGE,ANGPTL3,0.4538
O=C(NCCCn1ccnc1)c1cc(-c2ccco2)on1 [SKL2001],FN1 Fold Change (Log2),FN1,−0.81 Log2
same,CPOX Fold change (Log2),CPOX,0.45 Log2
same,ANGPTL3-LINEAR FOLD CHANGE,ANGPTL3,0.4323
CN[C@H]1CC[C@@H](c2ccc(Cl)c(Cl)c2)c2ccccc21 [Sertraline HCl],ANGPTL3-LINEAR FOLD CHANGE,ANGPTL3,0.3816
same,mrna remaining at 10 µM,"APOL1; RNAseq, 10 uM dose (Table 20)",64.6%
CCN(CC)CCNC(=O)c1c(C)[nH]c(/C=C2\C(=O)Nc3ccc(F)cc32)c1C [Sunitinib],ANGPTL3-LINEAR FOLD CHANGE,ANGPTL3,0.3035
same,mrna remaining at 10 µM,"APOL1; RNAseq, 10 uM dose (Table 20)",62%
CN1C(=O)c2sccc2N(C)c2nc(Nc3ccc(S(N)(=O)=O)cc3)ncc21 [XMU-MP-1],CPOX Fold change (Log2),CPOX,0.37 Log2
C[C@]12C=CC(=O)C=C1CC[C@@H]1[C@@H]2C(=O)C[C@@]2(C)[C@H]1CC[C@]2(O)C(=O)CO [prednisone],CPOX Fold change (Log2),CPOX,0.44 Log2
same,SLC37A4 Fold Change (Log2),SLC37A4,1.18 Log2
same,LECT2 Fold Change (Log2),LECT2,−0.65 Log2
IGF-1: IGF-1R activator,SLC37A4 Fold Change (Log2),SLC37A4,0.60 Log2
TNF-a,SLC37A4 Fold Change (Log2),SLC37A4,0.64 Log2
